Data on four compounds can be found in US5665330A, “Dual purposed diagnostic/therapeutic agent having a tri-iodinated benzoyl group linked to a coumarin” (Nano Systems LLC, priority 1995, dated 1997).

Data set [1] is described as follows: water solubility. In kind it is physicochemical. On the procedure:
Despite the high water solubility of sodium ditriazoate and sodium methoxy coumarin (>1 mg/ml), WIN 67638 and WIN 67591 are sparingly soluble in water with solubility less than 0.01 mg/mL.
By water soluble is meant greater than 1 mg/ml.

The test system of data set [2] is axillary nodes. Description: lymphography, CT imaging of axillary nodes after subcutaneous injection. Format: in vivo, New Zealand White Rabbits. Particulars: 4 hours post injection, single 0.5 ml subcutaneous dose, dorsal side of forepaw. On the procedure: (§1) 0.75 g of WIN 67591, as prepared in Example 1, was added to approximately 30 ml of 1.1 mm zirconium oxide beads and 10 ml of a solution which was 2% Tetronic 908 (wt/vol %) and 1% SA9OHCO (wt/vol %). SA9OHCO is a small sugar surfactant. The suspension was roller milled in a 60 ml jar at approximately 100 rpm for 7 days. At the end of this time, the average particle size was determined to be 192 nm by light scattering using a Zetasizer III. The suspension was removed from the beads and sent for subcutaneous injection as a lymphographic agent. CT imaging was carried out using a GE Model 9800 Instrument.

The nature of data set [3]: average particle size of roller-milled nanoparticle suspension (light scattering / PCS). In kind it is physicochemical. On the procedure: as §1
(§2) 2.85 g of WIN 67591 (19.2%) were added to 30 ml of a solution of 5.2% BASF NF Grade Tetronic 908 (wt/vol %) in sterilized distilled water and approximately 100 ml of 1.1 mm zirconium silicate beads in a 250 ml bottle. The bottle was capped and rolled at approximately 140 rpm for 7 days at which time the average particle size was determined to be 173 nm. The suspension was separated from the beads and sent for intravenous injection as a vascular x-ray contrast agent. New Zealand White rabbits were used for this study and were injected via the ear vein at a dose of 3 ml/kg. Three animals were studied for times 5, 15, 30, 60, 120 min. and 24 hours. CT scanning was carried out using a Toshiba Model TCT-900S/x at the times indicated.
(§3) […] as prepared in Example 1 at 5% W/V was formulated with 3% Tyloxapol by roller milling for ten days following the procedures similar to that of work example 3 and 4. The average particle size by PCS was 302 nm. The formulation was administered i.v. to colon 33 bearing mice at 0.2 ml/animal. […] As high as 700 ug (0.7% of the total dosage) WIN 67591 remained circulating in the blood 1 hour post injection. WIN 67591 was detected in the tumor tissue as early as 5 minute post injection. The drug concentration reached a maximum at 90 ug/g of tumor tissue at 6 hour post injection and maintained at a concentration of 60 ug/g in the tumor tissue for 48 hours.

A short description of data set [4]: blood pool imaging, vascular x-ray contrast by CT after intravenous injection. In kind it is in vivo, New Zealand White rabbits. Particulars: 3 ml/kg via ear vein, CT at 5, 15, 30, 60, 120 min and 24 hours. On the procedure:
as §2

Data set [5] is described as follows: mortality in biodistribution study in colon 33 tumor bearing mice. In kind it is in vivo. The settings on record: iv 0.2 ml/animal; during 48 hours treatment. On the procedure: (§4) A nanoparticulate formulation of 5% w/v […] in 3% polyoctylphenol (Tyloxopol) was prepared by ten days roller milling following the procedures similar to that of Example 9.
(§5) A biodistribution study of the treatment of Example 5 was conducted by iv injections into colon 33 tumor bearing mice at 0.2 ml/animal. […] No dead mice were reported during the 48 hours treatment.

Data set [6] can be described thus: tumor tissue concentration after iv injection in mice bearing colon 33 tumor. In kind it is in vivo. Particulars: mouse, colon 33 tumor tissue, iv; for Cmax at 6 h: read-out: maximum drug concentration in tumor tissue; for Tmax: read-out: time of maximum drug concentration in tumor tissue. On the procedure: as §4
(§6) The formulation was administered to mice bearing colon 33 tumor by iv injection. Analysis of the tumor tissue indicated the presence of WIN 67591 in the tumor tissue as soon as 5 minutes after injection. The drug concentration reached a maximum of 90 μg/g of tumor tissue at 6 hours and maintained at a concentration of 60 μg/g of tumor tissue for 42 hours.
as §3

The test system of data set [7] is colon 33 tumor tissue. The description is as above. In kind it is in vivo. On the procedure: as §4, §6, §3
Data set [8] in a line: biodistribution study, circulation in blood of colon 33 tumor bearing mice. In kind it is in vivo. Particulars: Example 7, i.v. 0.2 ml/animal. On the procedure:
as §4, §5, §3

Like-named read-outs stand apart in the source and are kept apart here. Some results are limits rather than exact numbers.

The term solubility denotes the concentration that dissolves in the medium under given conditions. As for `COc1cc2oc(=O)cc(COC(=O)c3c(I)c(NC(C)=O)c(I)c(NC(C)=O)c3I)c2cc1OC` [WIN 67591], in data set [1] (in water, conjugates, read-out: solubility in water), the solubility was below 10 µg/mL. In addition, in data set [2], the “enhancement of the axillary nodes (CT)” value is listed as “clear enchancement of the axillary nodes”. Besides, the average particle size in data set [3] (2% Tetronic 908 and 1% SA9OHCO, roller milled 7 days, light scattering, Zetasizer III) is 192 nm; in data set [3] (5.2% Tetronic 908 in sterilized distilled water, rolled 7 days) it was 173 nm. Moreover, the “average particle size by PCS” value in data set [3] (5% W/V with 3% Tyloxapol, roller milling ten days) is recorded as 302 nm. In data set [4], the “prolonged vascular residence time” value was above 2 h. Besides, in data set [5], the dead mice entry is given as “No dead mice”. Further, the Cmax at 6 h in data set [6] (Example 7, at 6 hour post injection, i.v. 0.2 ml/animal) came out at 90000 ng/g; in data set [6] (Example 5, at 6 hours), 90000 ng/g. The concentration at 48 h in data set [6] (Example 7, for 48 hours, i.v. 0.2 ml/animal, read-out: concentration maintained in tumor tissue) came to 60000 ng/g. In addition, the Tmax in data set [6] (Example 7, i.v. 0.2 ml/animal) was 6 h; in data set [6] (Example 5), 6 h. In data set [6] (Example 5, for 42 hours, read-out: concentration maintained in tumor tissue), the concentration at 42 h was 60000 ng/g. The “time for which tumor concentration of 60 μg/g was maintained” value in data set [7] (Example 5, iv) stood at 42 h. Also, in data set [7] (Example 5, iv), the “tumor tissue concentration versus average therapeutic dosage of oncologics” value is given as “exceeds the average therapeutic dosage of oncologics”. In data set [7] (Example 5, iv, 5% w/v in 3% Tyloxapol), the “time at which drug is present in tumor tissue” value was at most 5 min. The “time at which drug is detected in tumor tissue” value in data set [7] (Example 7, HPLC, i.v. 0.2 ml/animal) is at most 5 min. In addition, in data set [7] (Example 7, i.v. 0.2 ml/animal), the “time for which tumor concentration of 60 ug/g was maintained” value is 48 h. For the same compound, the “amount remaining circulating in the blood” value in data set [8] (1 hour post injection) came to 700 µg. Also, in data set [8] (1 hour post injection), the “share of total dosage remaining circulating in the blood” value was found to be 0.7%. Also, the blood circulation result in data set [8] is listed as “prolonged blood circulation”.

Regarding `COc1ccc2c(COC(=O)c3c(I)c(NC(C)=O)c(I)c(NC(C)=O)c3I)cc(=O)oc2c1` [WIN 67638], the solubility in data set [1] (water) is below 10 µg/mL.

On to `CC(=O)Nc1c(I)c(NC(C)=O)c(I)c(C(=O)O)c1I` [sodium ditriazoate, sodium diatrizoate, reference compound], for which the solubility in data set [1] (in water, starting materials, read-out: water solubility) is above 1000 µg/mL.

In turn, sodium methoxy coumarin showed a water solubility in data set [1] (water) above 1000 µg/mL.
